Test results: US11497756B2, “Treatment regimen for cancers that are insensitive to BCL-2 inhibitors using the MCL-1 inhibitor alvocidib” (Sumitomo Pharma Oncology, Inc., priority 2017, dated 2022)

Key:
[1] = system: MCL-1 expression in MV-4-11 cells; assay: MCL-1 protein expression in MV-4-11 cells treated in vitro; format: cell-based
Procedure: MV-4-11 cells were treated with alvocidib in vitro, harvested and analyzed to probe for changes relative to controls. Additionally, other exemplary CDK9 inhibitors (i.e., palbociclib and dinaciclib) were evaluated, along with alvocidib.

[2] = system: OCI-AML3 cells; assay: In vivo tumor growth, immune deficient mice injected with OCI-AML3 cells; settings: 2.5 mg/kg intraperitoneal, once a day for 21 days, by day 21, FIG. 3
Procedure: Alvocidib was used alone to test in vivo activity in OCI-AML3 cells. […] To test the in vivo activity, immune deficient mice injected with OCI-AML3 cells were treated with 2.5 mg/kg of alvocidib via intraperitoneal injection or 100 mg/kg of Venetoclax/ABT-199 per os (i.e., oral administration). Each treatment (i.e., alvocidib and Venetoclax/ABT-199) was administered once a day for 21 days.

[3] = system: MCL-1 expression in OCI-AML3 cells; assay: MCL-1 expression in OCI-AML3 cells in vitro; format: cell-based; settings: multiple time points after treatment, FIG. 4
Text: MCL-1 expression was decreased in OCI-AML3 cells at multiple time points following treatment with alvocidib (FIG. 4).

[4] = system: HEL cells; assay: Cell viability (CellTiter-Glo) in HEL erythroleukemia cells; format: cell-based; settings: 72 hours, compared to Venetoclax, FIG. 5
Procedure: (§1) To assess the effects of alvocidib or Venetoclax treatment on leukemic cells, the erythroleukima cell line, HEL, was cultured in RPMI media supplemented with 10% FBS and penicillin/streptomycin. Cell viability was assessed in treated cells using the CellTiter-Glo reagent (Promega), according to manufacturer protocol. Cells were treated in 96-well plates for 72 hours, before being analyzed in a luminescence compatible plate reader. Curve fitting and analysis was performed using Graphpad Prism software.

[5] = system: OPM2 cells; assay: Cell viability (CellTiter-Glo) in OPM2 multiple myeloma cells; format: cell-based; settings: 72 hours, compared to Venetoclax, FIG. 6
Procedure: as §1, with “multiple myeloma” for “leukemic”, “OPM2 cells were” for “the erythroleukima cell line, HEL, was”

[6] = system: OCI-AML3 cells; assay: Sensitivity of OCI-AML3 cells to Venetoclax/ABT-199; format: cell-based; settings: Homo sapiens, OCI-AML-3
[7] = in vivo; cited from earlier work

In the case of `CN1CC[C@H](c2c(O)cc(O)c3c(=O)cc(-c4ccccc4Cl)oc23)[C@H](O)C1` [alvocidib], the MCL-1 expression ([1]; 24 hour treatment, FIG. 2) is reported as “decreased MCL-1 expression”, the “impact on MCL-1 protein levels compared with the other CDK9 inhibitors” value ([1]; 24 hour treatment, FIG. 2) is reported as “strongest impact on MCL-1 protein levels” and the “MCL-1 expression relative to controls” value ([1]; alvocidib 0-8 μM, FIG. 1) is reported as “decreases MCL-1 expression in MV-4-11 in a dose dependent manner”. The “reduction in tumor growth” value [2] was 50%, the MCL-1 expression [3] was “decreased” and the cell viability [4] was “inhibition of cell viability”. For the same compound, the cell viability [5] was “inhibition of cell viability”.

`CC1(C)CCC(CN2CCN(c3ccc(C(=O)NS(=O)(=O)c4ccc(NCC5CCOCC5)c([N+](=O)[O-])c4)c(Oc4cnc5[nH]ccc5c4)c3)CC2)=C(c2ccc(Cl)cc2)C1` [Venetoclax] showed an EC50 [6] of 2330 nM.

In the case of `CC1(C)CCC(c2ccc(Cl)cc2)=C(CN2CCN(c3ccc(C(=O)NS(=O)(=O)c4ccc(N[C@H](CCN5CCOCC5)CSc5ccccc5)c(S(=O)(=O)C(F)(F)F)c4)cc3)CC2)C1` [navitoclax], the toxicity [7] is listed as “toxic due to thrombocytopenia”.
